In test [1] the target is T1, c-Met kinase domain recombinant protein (Homo sapiens, UniProt P08581).
T1 construct: 50 μL diluted solution of c-Met kinase domain recombinant protein in reaction buffer was added to initiate the reaction
In words: biochemical. Conditions: read-out: Inhibition rate at 10 μM (%). Here is the method:
Enzymatic reaction substrate Poly(Glu,Tyr)4:1 was diluted to 20 μg/mL in potassium ion free PBS (10 mM sodium phosphate buffer, 150 mM NaCl, pH7.2-7.4), microplate was coated with this solution at 125 μL per well, and reacted at 37° C. for 12-16 hours. Liquid in wells was discarded. Plate washing: the plate was washed 3 times for 5 minutes each with 200 μL per well of T-PBS (potassium ion free PBS containing 0.1% Tween-20).
Into each well was added 49 μL diluted ATP solution in reaction buffer (50 mM HEPES pH 7.4, 50 mM MgCl2, 0.5 mM MnCl2, 0.2 mM Na3VO4, 1 mM DTT), and 1 μL per well of compound to be tested was added, then 50 μL diluted solution of c-Met kinase domain recombinant protein in reaction buffer was added to initiate the reaction, each test was setup with two wells of ATP free control. Reaction was performed in a 37° C. shaker (100 rpm) for 1 hour. Liquid in the wells was discarded, and the plate was washed three times with T-PBS.
Antibody PY99 was added at 100 μL per well (the antibody was 1:500 diluted in T-PBS containing 5 mg/mL BSA), incubated in a 37° C. shaker for 0.5 hour. Liquid in the wells was discarded, and the plate was washed three times with T-PBS.
Goat anti mouse secondary antibody labeled with horseradish peroxidase was added at 100 μL per well (the antibody was 1:2000 diluted in T-PBS containing 5 mg/mL BSA), incubated in a 37° C. shaker for 0.5 hour. Liquid in the wells was discarded, and the plate was washed three times with T-PBS.
Reaction was terminated by adding 50 μL per well of 2M H2SO4, the plate was read at 490 nm using a VERSAmax microplate reader with tunable wavelength.
(§1) Inhibition rate of the sample was calculated using the following equation: […]

The target of test [2] is T1, c-Met kinase domain recombinant protein. As to the kind of experiment: biochemical. The settings on record: for inhibition at 10 µM: read-out: Average inhibition rate at 10 μM (%); for inhibition at 0.1 µM: read-out: Average inhibition rate at 0.1 μM (%); for inhibition at 1 µM: read-out: Average inhibition rate at 1 μM (%). Here is the method: Enzymatic reaction substrate Poly(Glu,Tyr)4:1 was diluted to 20 μg/mL in potassium ion free PBS (10 mM sodium phosphate buffer, 150 mM NaCl, pH7.2-7.4), microplate was coated with this solution at 125 μL per well, and reacted at 37° C. for 12-16 hours. Liquid in wells was discarded, then the plate was washed 3 times for 5 minutes each with 200 μL per well of T-PBS (PBS containing 0.1% Tween-20).
Into each well was added 50 μL diluted ATP solution in reaction buffer (50 mM HEPES pH 7.4, 50 mM MgCl2, 0.5 mM MnCl2, 0.2 mM Na3VO4, 1 mM DTT), the final concentration was 5 μM. Test compound was diluted in DMSO to proper concentration, added at 1 μL per well or corresponding level of DMSO (negative control wells), then 49 μL diluted solution of c-Met kinase domain recombinant protein in reaction buffer was added to initiate the reaction, each test was setup with two wells of ATP free control. Reaction was performed in a 37° C. shaker (100 rpm) for 1 hour. The plate was washed three times with T-PBS. Primary antibody PY99 diluted solution was added at 100 μL per well, incubated in a 37° C. shaker for 0.5 hour.
The plate was washed three times with T-PBS. Goat anti mouse secondary antibody labeled with horseradish peroxidase was added at 100 μL per well, incubated in a 37° C. shaker for 0.5 hour. The plate was washed three times with T-PBS. […] Reaction was terminated by adding 50 μL per well of 2M H2SO4, the plate was read at 490 nm using a SPECTRA MAX 190 microplate reader with tunable wavelength.
as §1
IC50 was calculated by fitting the data for a four parameter fit using inhibition curve.

Like-named read-outs stand apart in the source and are kept apart here.

The term inhibition denotes the change of the read-out against control, counted positive when it falls. As usually defined, the IC50 is the concentration needed to halve the response being measured.

T1 sequence (P08581 1078-1345 limits assumed): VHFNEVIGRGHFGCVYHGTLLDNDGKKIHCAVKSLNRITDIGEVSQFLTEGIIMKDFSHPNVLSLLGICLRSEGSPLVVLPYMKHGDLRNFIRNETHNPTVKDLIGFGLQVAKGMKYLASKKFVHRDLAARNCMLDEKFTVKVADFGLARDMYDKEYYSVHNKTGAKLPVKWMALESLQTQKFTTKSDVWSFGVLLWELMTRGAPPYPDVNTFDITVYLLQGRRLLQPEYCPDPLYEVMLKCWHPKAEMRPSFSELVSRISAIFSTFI

Consider `Cn1cc(-c2cnc3cnn(S(=O)(=O)c4ccccc4F)c3c2)cn1` [Compound 6, 1-(2-fluorobenzenesulfonyl)-6-[(1-methyl)-4-pyrazolyl]-1-H-pyrazolo[4,3-b]pyridine], for which the inhibition at 10 µM in test [1] and in test [2] was 34.4% in each case.
Take `Cn1cc(-c2cnc3cnn(S(=O)(=O)c4ccc(F)cc4)c3c2)cn1` [Compound 7, 1-(4-fluorobenzenesulfonyl)-6-[(1-methyl)-4-pyrazolyl]-1-H-pyrazolo[4,3-b]pyridine]: the inhibition at 10 µM in test [1] and in test [2] was 40.7% each time.
Consider `Cn1cc(-c2cnc3cnn(S(=O)(=O)c4ccccc4C#N)c3c2)cn1` [Compound 8, 1-(2-cyanobenzenesulfonyl)-6-[(1-methyl)-4-pyrazolyl]-1-H-pyrazolo[4,3-b]pyridine], for which the inhibition at 10 µM in test [1] was 72.4%. For the same molecule, in test [2], the inhibition at 0.1 µM worked out at 9.2%, the inhibition at 1 µM amounted to 51.6% and the inhibition at 10 µM worked out at 72.4%.
For the molecule `Cn1cc(-c2cnc3cnn(S(=O)(=O)c4ccc([N+](=O)[O-])cc4)c3c2)cn1` [Compound 9, 1-(4-nitrobenzenesulfonyl)-6-[(1-methyl)-4-pyrazolyl]-1-H-pyrazolo[4,3-b]pyridine], the inhibition at 10 µM in test [1] and in test [2] was 22% throughout.
Consider `COc1ccc(S(=O)(=O)n2ncc3ncc(-c4cnn(C)c4)cc32)cc1OC` [Compound 10, 1-(3,4-dimethoxybenzenesulfonyl)-6-[(1-methyl)-4-pyrazolyl]-1-H-pyrazolo[4,3-b]pyridine], for which the inhibition at 10 µM in test [1] and in test [2] was 37.9% throughout.
As for `Cc1noc(C)c1S(=O)(=O)n1ncc2ncc(-c3cnn(C)c3)cc21` [Compound 11, 1-(3,5-dimethylisoxazolesulfonyl)-6-[(1-methyl)-4-pyrazolyl]-1-H-pyrazolo[4,3-b]pyridine], the inhibition at 10 µM in test [1] and in test [2] was 48.6% in each case.
With `Cn1cc(-c2cnc3cnn(S(=O)(=O)c4ccc(F)cc4F)c3c2)cn1` [Compound 12, 1-(2,4-difluorobenzenesulfonyl)-6-[(1-methyl)-4-pyrazolyl]-1-H-pyrazolo[4,3-b]pyridine], the inhibition at 10 µM in test [1] and in test [2] was 37.5% throughout.
As to `CC(=O)c1ccc(S(=O)(=O)n2ncc3ncc(-c4cnn(C)c4)cc32)cc1` [Compound 13, 1-(4-acetylbenzenesulfonyl)-6-[(1-methyl)-4-pyrazolyl]-1-H-pyrazolo[4,3-b]pyridine], the inhibition at 10 µM in test [1] stood at 52.6%. Moreover, in test [2], the inhibition at 0.1 µM stood at 28.5%, the inhibition at 1 µM came out at 45.3% and the inhibition at 10 µM stood at 52.6%.
For `Cn1cc(-c2cnc3cnn(S(=O)(=O)c4ccccc4C(F)(F)F)c3c2)cn1` [Compound 14, 1-(2-trifluoromethylbenzenesulfonyl)-6-[(1-methyl)-4-pyrazolyl]-1-H-pyrazolo[4,3-b]pyridine], the inhibition at 10 µM in test [1] stood at 74.3%. In test [2], the inhibition at 0.1 µM was 39.9%, the inhibition at 1 µM worked out at 54.7% and the inhibition at 10 µM came out at 74.3%.
In the case of `Cn1cc(-c2cnc3cnn(S(=O)(=O)c4ccc(C(F)(F)F)cc4)c3c2)cn1` [Compound 15, 1-(4-trifluoromethylbenzenesulfonyl)-6-[(1-methyl)-4-pyrazolyl]-1-H-pyrazolo[4,3-b]pyridine], the inhibition at 10 µM in test [1] and in test [2] was 40.6% throughout.
`Cn1cc(-c2cnc3cnn(S(=O)(=O)c4cccc(C(F)(F)F)c4)c3c2)cn1` [Compound 16, 1-(3-trifluoromethylbenzenesulfonyl)-6-[(1-methyl)-4-pyrazolyl]-1-H-pyrazolo[4,3-b]pyridine]: the inhibition at 10 µM in test [1] was 73.2%. In test [2], the inhibition at 0.1 µM was determined as 25.2%, the inhibition at 1 µM was determined as 56.1% and the inhibition at 10 µM came to 73.2%.
`COc1ccc(S(=O)(=O)n2ncc3ncc(-c4cnn(C)c4)cc32)cc1` [Compound 17, 1-(4-methoxybenzenesulfonyl)-6-[(1-methyl)-4-pyrazolyl]-1-H-pyrazolo[4,3-b]pyridine]: the inhibition at 10 µM in test [1] and in test [2] was 49.9% each time.
Take `Cn1cc(-c2cnc3cnn(S(=O)(=O)c4cnn5cccnc45)c3c2)cn1` [Example 22, 1-(pyrazolo[1,5-a]pyrimidine-3-sulfonyl)-6-[(1-methyl)-4-pyrazolyl]-1-H-pyrazolo[4,3-b]pyridine]: the inhibition at 10 µM in test [1] turned out to be 69.5%. In addition, in test [2], the half-maximal inhibitory concentration (IC50) stood at 0.0397 ± 0.0063 µM, the inhibition at 0.1 µM was 24.9%, the inhibition at 1 µM came to 58.7% and the inhibition at 10 µM was determined as 69.5%.
Regarding `Cn1cc(-c2cnc3cnn(S(=O)(=O)c4cnc5ncccn45)c3c2)cn1` [Example 23, 1-(imidazo[1,2-a]pyrimidine-3-sulfonyl)-6-[(1-methyl)-4-pyrazolyl]-1-H-pyrazolo[4,3-b]pyridine], the inhibition at 10 µM in test [1] worked out at 65.1%. In test [2], the concentration for half-maximal inhibition (IC50) was determined as 0.0037 ± 0.0014 µM, the inhibition at 0.1 µM was determined as 26.9%, the inhibition at 1 µM was found to be 52.7% and the inhibition at 10 µM worked out at 65.1%.
As to `Cn1cc(-c2cnc3cnn(S(=O)(=O)c4cnc5ccc(C(F)(F)F)cn45)c3c2)cn1` [Example 26, 1-[(6-trifluoromethyl-imidazo[1,2-a]pyridine)-3-sulfonyl]-6-[(1-methyl)-4-pyrazolyl]-1-H-pyrazolo[4,3-b]pyridine], the inhibition at 10 µM in test [1] came out at 65.2%. In test [2], the IC50 was 0.0339 ± 0.0069 µM, the inhibition at 0.1 µM came to 60%, the inhibition at 1 µM is 63.8% and the inhibition at 10 µM came out at 65.2%.
On to `O=S(=O)(c1cnc2ccccn12)n1ncc2ncc(-c3cccnc3)cc21` [Example 30, 1-(imidazo[1,2-a]pyridine-3-sulfonyl)-6-(3-pyridinyl)-1-H-pyrazolo[4,3-b]pyridine], for which the inhibition at 10 µM in test [1] was found to be 71%. In test [2], the inhibition at 0.1 µM turned out to be 48.3%, the inhibition at 1 µM is 59.7% and the inhibition at 10 µM came to 71%.
For the molecule `O=S(=O)(c1cnc2ccccn12)n1ncc2ncc(-c3ccoc3)cc21` [Example 31, 1-(imidazo[1,2-a]pyridine-3-sulfonyl)-6-(3-furanyl)-1-H-pyrazolo[4,3-b]pyridine], the inhibition at 10 µM in test [1] worked out at 69%. For the same molecule, in test [2], the inhibition at 0.1 µM was found to be 59%, the inhibition at 1 µM worked out at 64.1% and the inhibition at 10 µM stood at 69%.
Consider `O=S(=O)(c1cnc2ccccn12)n1ncc2ncc(-c3ccc(C(F)(F)F)cc3)cc21` [Example 32, 1-(imidazo[1,2-a]pyridine-3-sulfonyl)-6-(4-trifluoromethylphenyl)-1-H-pyrazolo[4,3-b]pyridine], for which the inhibition at 10 µM in test [1] worked out at 64.2%. In test [2], the inhibition at 0.1 µM turned out to be 52.9%, the inhibition at 1 µM worked out at 52% and the inhibition at 10 µM amounted to 64.2%.
`O=S(=O)(c1cnc2ccccn12)n1ncc2ncc(-c3ccc4ccccc4c3)cc21` [Example 33, 1-(imidazo[1,2-a]pyridine-3-sulfonyl)-6-(2-naphthyl)-1-H-pyrazolo[4,3-b]pyridine]: the inhibition at 10 µM in test [1] turned out to be 53.7%. Moreover, in test [2], the inhibition at 0.1 µM stood at 39.9%, the inhibition at 1 µM was 47.3% and the inhibition at 10 µM was found to be 53.7%.
For `CS(=O)(=O)Nc1ccc(-c2cnc3cnn(S(=O)(=O)c4cnc5ccccn45)c3c2)cc1` [Example 34, 1-(imidazo[1,2-a]pyridine-3-sulfonyl)-6-(4-methylsulfamidophenyl)-1-H-pyrazolo[4,3-b]pyridine], the inhibition at 10 µM in test [1] was 61.3%. In test [2], the inhibition at 0.1 µM is 31.3%, the inhibition at 1 µM was found to be 49.3% and the inhibition at 10 µM was determined as 61.3%.

Values taken from patent US9988381B2, “Five-member-heterocycle fused pyridine compounds, method of producing the same, and use thereof” (SHANGHAI INSTITUTE OF MATERIA MEDICA, CHINESE ACADEMY OF …, priority 2013, dated 2018).
